# Experimental data taken from patent US12011449B2, “Therapeutic combinations comprising a c-RAF inhibitor” (Novartis AG, priority 2016, dated 2024).
# Read-outs that look alike come from different tables or passages of the source.
# What was measured:
# PC3 = experiment: Proliferation, CellTiter-Glo 72 h, PC3; format: cell-based; details: Homo sapiens, PC-3, PC3, Prostate, BRAF WT, RAS WT
# Text: (§1) Note that activity is especially strong on cell lines that harbor at least one mutation in BRAF or RAS.
# A375/MEK1 E203K = experiment: Anti-proliferative effect in mechanistic A375 models, A375/MEK1 E203K; format: cell-based; details: Homo sapiens, A-375, doxycycline-induced, 72 hours
# Experimental: (§2) To investigate the activity of Compound A in BRAF V600 mutant melanoma cells refractory to BRAF and/or MEK inhibitors, the anti-proliferative activity of Compound A in the mechanistic models derived from the BRAF V600 melanoma cell line A375 expressing mutations of MEK1/2, NRAS, or a splice variant of BRAF was evaluated.
# [1] = test system: non-small cell lung cancer (NSCLC); experiment: Phase I dose finding study, tumor response (RECIST); format: in vivo, human; details: one NSCLC subject, 1200 mg QD, preliminary
# Experimental: The recommended starting dose and regimen of Compound A single agent in this study is 100 mg QD orally based on the preclinical safety, tolerability data, PK/PD data obtained in preclinical studies, as well as exploratory human efficacious dose range projection. […] For maximum flexibility of dosing, Compound A may be prepared as 50 mg and/or 100 mg tablets for oral administration. A proposed formulation for clinical use of Compound A includes Compound A combined with one or more excipients selected from hydroxypropylmethylcellulose (Hypromellose), colloidal silicon dioxide, microcrystalline cellulose, polyvinylpyrrolidone (Povidone), and magnesium stearate, and can be prepared in the form of tablets for oral administration, suitably containing 50 mg or 100 mg of Compound A. This was further confirmed by preliminary results obtained from the clinical trial.
# [2] = test system: Calu-6 (KRAS Q61K) xenograft; experiment: Calu-6 xenograft in nude rats; format: in vivo
# [3] = test system: DUSP6 (dual specificity phosphatase 6); experiment: DUSP6 pharmacodynamic biomarker in vivo; details: subject receiving a dosage associated with efficacious plasma levels
# Text: In addition, an efficacious dosage can be determined by monitoring biomarkers indicative of MAP kinase pathway inhibition.
# HuP-T4 = experiment: Proliferation, CellTiter-Glo 72 h, HuP-T4; format: cell-based; details: Homo sapiens, HuP-T4, Pancreas, BRAF WT, KRAS G12V
# Text: as §1
# TCC-PAN2 = experiment: Proliferation, CellTiter-Glo 72 h, TCC-PAN2; format: cell-based; details: Homo sapiens, TCC-PAN2, Pancreas, BRAF WT, KRAS G12R
# Text: as §1
# [4] = test system: A375 derivatives expressing mutations of MEK1/2, NRAS, or a splice variant of BRAF; experiment: IC50 shift of resistant A375 models versus parental A375; format: cell-based, human
# Experimental: as §2
# HCT116 = experiment: Proliferation, CellTiter-Glo 72 h, HCT116; format: cell-based; details: Homo sapiens, HCT-116, HCT116, Colorectal, BRAF WT, KRAS G13D
# Text: as §1
# A375/MEK2 Q60P = experiment: Anti-proliferative effect in mechanistic A375 models, A375/MEK2 Q60P; format: cell-based; details: Homo sapiens, A-375, doxycycline-induced, 72 hours
# Experimental: as §2
# A375/BRAFp61-V600E = experiment: Anti-proliferative effect in mechanistic A375 models, A375/BRAFp61-V600E; format: cell-based; details: Homo sapiens, A-375, doxycycline-induced, 72 hours
# Experimental: as §2
# [5] = Clinical PK of Compound A tablets, once daily, fasted subjects; format: in vivo, human; details: plasma; for AUC: day 1 of dosing, read-out: Mean plasma exposure over the dose interval of 24 hours (AUCtau); for Cmax: oral tablets, fasted subjects, read-out: Maximum plasma concentration (Cmax)
# Experimental: Compound A was formulated with hydroxypropylmethylcellulose/Hypromellose, colloidal silicon dioxide, microcrystalline cellulose, polyvinylpyrrolidone/Povidone and magnesium stearate, and formed into tablets containing about 50 mg of Compound A. A number of tablets sufficient to provide a desired dosage were administered once daily to fasted subjects. Subjects were treated at doses of 100 mg once per day, or 200 mg once per day. Serial blood samples for PK assessments were collected up to 48 hours after the first dose of Compound A (Cycle 1 Day 1), and up to 24 hours after multiple doses (Cycle 1 Day 15). […] Mean plasma exposure over the dose interval of 24 hours (AUCtau) on day 1 of dosing was 5679 hr·ng/ml and 10019 hr·ng/ml after the 100 mg and 200 mg doses of Compound A, respectively. […] As this study is on-going, all data presented are considered preliminary.
# A375 [6] = experiment: Anti-proliferative effect in mechanistic A375 models, parental A375; format: cell-based; details: Homo sapiens, A-375, 72 hours, CellTiter-Glo
# Experimental: as §2
# A375/MEK1 C121S = experiment: Anti-proliferative effect in mechanistic A375 models, A375/MEK1 C121S; format: cell-based; details: Homo sapiens, A-375, doxycycline-induced, 72 hours
# Experimental: as §2
# IPC298 = experiment: Proliferation, CellTiter-Glo 72 h, IPC298; format: cell-based; details: Homo sapiens, IPC-298, IPC298, Melanoma, BRAF WT, NRAS Q61L
# Text: as §1
# NCI-H2073 = experiment: Proliferation, CellTiter-Glo 72 h, NCI-H2073; format: cell-based; details: Homo sapiens, NCI-H2073, NSCLC, BRAF WT, RAS WT
# Text: as §1
# [7] = test system: NCI-H358 (KRAS G12C) xenograft; experiment: NCI-H358 xenograft in mice; format: in vivo; details: 200 mg/kg QD
# Experimental: (§3) SCID beige female tumor-bearing NCI-H358 mice, n=8 per group, were randomized into 3 groups 14 days post tumor cell inoculation with an average tumor volume range of 259.44-262.47 mm^3.
# (§4) Regressions were also achieved in a second human NSCLC model, NCI-H358, at the 200 mg/kg QD dose in mice and in the human ovarian Hey-A8 xenograft at doses as low as 30 mg/kg QD in mice.
# [8] = test system: Calu-6 human NSCLC xenograft; experiment: Calu-6 NSCLC subcutaneous xenograft, single agents and combination; format: in vivo; details: for durability of tumor response: under treatment, 42 days post dosing
# Experimental: Calu-6 NSCLC tumors were established in athymic female mice by subcutaneous injection of 10 million cells in 50% Matrigel™ into the flank of each mouse. […] A-B) Tumor volumes of treatment groups vs. days post randomization. C) Mean percent change in body weight from initial.
# Combined treatment with Compound A and Compound B led to increased depth and durability of tumor response compared to either single agent in the human NSCLC xenograft Calu-6. […] Combining Compound A dosed at 30 mg/kg qd with Compound B dosed at either 50 mg/kg qd or 75 mg/kg q2d achieved 66% and 51% regressions, respectively, 17 days post dosing. In addition to the increased depth of response, the combination of Compound A and Compound B also led to an increased durability of response.
# [9] = test system: Calu-6 (KRAS Q61K), HCT116 (KRAS G13D); experiment: Cell-based proliferation, Calu-6 and HCT116; details: Homo sapiens
# [10] = test system: human ovarian Hey-A8 xenograft; experiment: Hey-A8 ovarian xenograft in mice; format: in vivo; details: doses as low as 30 mg/kg QD
# Experimental: as §4
# WM2664 = experiment: Proliferation, CellTiter-Glo 72 h, WM2664; format: cell-based; details: Homo sapiens, WM 266-4, WM2664, Melanoma, BRAF V600D, RAS WT
# Text: as §1
# PSN1 = experiment: Proliferation, CellTiter-Glo 72 h, PSN1; format: cell-based; details: Homo sapiens, PSN1, Pancreas, BRAF WT, KRAS G12R
# Text: as §1
# Calu-6 = experiment: Proliferation, CellTiter-Glo 72 h, Calu-6; format: cell-based; details: Homo sapiens, Calu-6, NSCLC, BRAF WT, KRAS Q61K
# Text: as §1
# HCC827 = experiment: Proliferation, CellTiter-Glo 72 h, HCC827; format: cell-based; details: Homo sapiens, HCC827, NSCLC, BRAF WT, RAS WT
# Text: as §1
# A375 [11] = experiment: Proliferation, CellTiter-Glo 72 h, A375; format: cell-based; details: Homo sapiens, A-375, A375, Melanoma, BRAF V600E, RAS WT
# Text: as §1
# HeyA8 = experiment: Proliferation, CellTiter-Glo 72 h, HeyA8; format: cell-based; details: Homo sapiens, HEY A8, HeyA8, Ovarian, BRAF G464E, KRAS G12D
# Text: as §1
# A375/NRAS Q61K = experiment: Anti-proliferative effect in mechanistic A375 models, A375/NRAS Q61K; format: cell-based; details: Homo sapiens, A-375, doxycycline-induced, 72 hours
# Experimental: as §2
# A375/MEK1 Q56P = experiment: Anti-proliferative effect in mechanistic A375 models, A375/MEK1 Q56P; format: cell-based; details: Homo sapiens, A-375, doxycycline-induced, 72 hours
# Experimental: as §2
# [12] = test system: Calu-6 (KRAS Q61K) xenograft; experiment: Calu-6 xenograft in nude mice; format: in vivo
# Experimental: (§5) Female nude tumor bearing Calu6 mice, n=6 per group were randomized into treatment groups on day 17 following tumor implantation, when the average tumor volume was 180 mm3. Treatments with compound A were initiated on Day 17 and continued for 16 days. Dosing volume was 10 mL/kg. Tumor volumes were collected at the time of randomization and twice weekly thereafter for the study duration.
# as §4
# KRASmt NSCLC models = experiment: Human KRAS-mutant xenograft models, overall statements; format: in vivo
# Experimental: as §3, §5
# Nude female mice tumor bearing NCI-H358, n=8 per group, were randomized into 2 groups with an average tumor volume range of 275.74 mm3.
# AsPC-1 (KRAS^G12D) = experiment: 3 day proliferation assay, AsPC-1; format: cell-based; details: Homo sapiens, ASPC1, 72 h, read-out: IC50 cell growth
# PSN1 (KRAS^G12R) = experiment: 3 day proliferation assay, PSN1; format: cell-based; details: Homo sapiens, 72 h, read-out: IC50 cell growth
# HeyA8 (KRAS^G12D) = experiment: 3 day proliferation assay, HeyA8; format: cell-based; details: Homo sapiens, HEY A8, 72 h, read-out: IC50 cell growth
# Calu6 (KRAS^Q61K) = experiment: 3 day proliferation assay, Calu6; format: cell-based; details: Homo sapiens, Calu-6, 72 h, read-out: IC50 cell growth
smiles,measurement,setting,value
"Cc1ccc(NC(=O)c2ccnc(C(F)(F)F)c2)cc1-c1cc(OCCO)nc(N2CCOCC2)c1 [Compound A, N-(3-(2-(2-hydroxyethoxy)-6-morpholinopyridin-4-yl)-4-methylphenyl)-2-(trifluoromethyl)isonicotinamide]",IC50,PC3,> 20000 nM
same,IC50,A375/MEK1 E203K,1050 nM
same,partial response according to RECIST,[1],−35%
same,anti-tumor effect,"[2]; nude rats, 75 and 150 mg/kg QD",regressions
same,anti-tumor effect,"[2]; rats, 35 mg/kg QD",Tumor stasis
same,in vivo levels of DUSP6,[3],drop
same,IC50,HuP-T4,650 nM
same,IC50,TCC-PAN2,420 nM
same,increase in IC50 in resistant models,[4],2-3 fold
same,IC50,HCT116,470 nM
same,IC50,A375/MEK2 Q60P,1120 nM
same,IC50,A375/BRAFp61-V600E,720 nM
same,AUC,"[5]; human, oral, 100 mg",5680 ng·h/mL
same,AUC,"[5]; human, oral, 200 mg",10000 ng·h/mL
same,half-life,"[5]; human, oral, in patients",23 to 24 h
same,Cmax,"[5]; human, single 100 mg dose",447 ng/mL
same,Cmax,"[5]; human, single 200 mg dose",889 ng/mL
same,accumulation ratio,[5]; once daily dosing of 100 mg,1.8
same,IC50,A375 [6],420 nM
same,IC50,A375/MEK1 C121S,1140 nM
same,IC50,IPC298,250 nM
same,IC50,NCI-H2073,18200 nM
same,anti-tumor effect,[7],Regressions
same,T/C,"[8]; Compound A 30 mg/kg qd, oral, 17 days post dosing",26%
same,durability of tumor response,[8],progressed under treatment
same,IC50,[9],200 to 1200 nM
same,anti-tumor effect,[10],Regressions
same,IC50,WM2664,450 nM
same,predicted half-life,Predicted human PK,~9 h
same,IC50,PSN1,680 nM
same,IC50,Calu-6,1500 nM
same,IC50,HCC827,> 20000 nM
same,IC50,A375 [11],240 nM
same,IC50,HeyA8,210 nM
same,IC50,A375/NRAS Q61K,950 nM
same,IC50,A375/MEK1 Q56P,1150 nM
same,anti-tumor effect,"[12]; mice, 30 mg/kg QD",Tumor stasis
same,anti-tumor effect,"[12]; nude mice, 100, 200, and 300 mg/kg once daily (QD)",regressions
same,single agent anti-tumor activity,"KRASmt NSCLC models; H358, Calu6, H727 models, oral daily",showed single agent activity
same,tolerability (body weight loss),KRASmt NSCLC models; in all cases (KRAS-mutant xenograft models),well tolerated as judged by lack of significant body weight loss
"CNC[C@@H](NC(=O)c1ccc(-c2nc([C@H]3CC[C@H](O)[C@@H](F)C3)cnc2N)cc1F)c1cc(F)cc(Br)c1 [Compound B, 4-(3-amino-6-((1S,3S,4S)-3-fluoro-4-hydroxycyclohexyl)pyrazin-2-yl)-N-((S)-1-(3-bromo-5-fluorophenyl)-2-(methylamino)ethyl)-2-fluorobenzamide]",IC50,AsPC-1 (KRAS^G12D),< 1000 nM
same,IC50,PSN1 (KRAS^G12R),< 1000 nM
same,IC50,HeyA8 (KRAS^G12D),< 1000 nM
same,regressions,"[8]; Compound B 50 mg/kg qd, oral, 17 days post dosing",22%
same,T/C,"[8]; Compound B 75 mg/kg q2d, oral, 17 days post dosing",4%
same,durability of tumor response,[8],progressed under treatment
same,IC50,Calu6 (KRAS^Q61K),< 1000 nM
Cn1cnc2c(F)c(Nc3ccc(Br)cc3Cl)c(C(=O)NOCCO)cc21 [Selumetinib],IC50,A375/MEK1 E203K,1810 nM
same,IC50,A375/MEK2 Q60P,4840 nM
same,IC50,A375/BRAFp61-V600E,> 10000 nM
same,IC50,A375 [6],36 nM
same,IC50,A375/MEK1 C121S,2330 nM
same,IC50,A375/NRAS Q61K,5500 nM
same,IC50,A375/MEK1 Q56P,5350 nM
CCCS(=O)(=O)Nc1ccc(F)c(C(=O)c2c[nH]c3ncc(-c4ccc(Cl)cc4)cc23)c1F [Vemurafenib],IC50,A375/MEK1 E203K,5580 nM
same,IC50,A375/MEK2 Q60P,5280 nM
same,IC50,A375/BRAFp61-V600E,8510 nM
same,IC50,A375 [6],66 nM
same,IC50,A375/MEK1 C121S,8700 nM
same,IC50,A375/NRAS Q61K,9380 nM
same,IC50,A375/MEK1 Q56P,9620 nM
